From publication PMC3923716 (PLoS Neglected Tropical Diseases, 2014)
Where “and” joins values, the source holds several entries; their conditions need not be identical. Equal values may be shown once. Marks after values point to notes of the source that are not given here.

Assays:
B. malayi Hsp90 = B. malayi Hsp90 (Brugia malayi, UniProt A0A0H5S7Y7); test: Competition FP assay (displacement of Cy3B-GA), B. malayi lysate; type: binding; conditions: best fit (95% confidence intervals), read-out: B. malayi IC50
Procedure: (§1) The FP assay was set up essentially as described previously, [25]. […] The equilibrium binding of Cy3B-GA and recombinant human Hsp90α (Enzo Life Sciences, Farmingdale, NY USA) or parasite lysate was determined by creating a two-fold dilution series of protein/extract for an eleven-point curve with the first column containing no protein. […] All FP values are expressed in millipolarization (mP) units with the mP value of free Cy3B-GA probe set to 50. Equilibrium binding constants were determined by nonlinear regression using a one-site binding model (GraphPad Prism software).
(§2) The relative binding affinities of inhibitors to human or parasite-derived Hsp90 was determined using competitive FP binding assays. […] For parasite-derived Hsp90, an amount of parasite lysate resulting in 50% of maximal Cy3B-GA binding was used. […] Stock solutions of each compound were prepared in DMSO at a concentration of 10 mM and 3-fold serial dilutions prepared in DMSO for eleven point curves. […] The final concentration of Cy3B-GA was 6 nM and the final DMSO concentration in all wells was 0.5%. Free Cy3B-GA (mP set to 50) and buffer only (background) wells were included as controls on each plate. Plates were incubated at 8°C with gentle shaking for 20 h.

adult female B. pahangi [1] = test: Short 24 h exposure of adult female worms, then medium alone; type: cell-based, Brugia pahangi; conditions: for mean Mf production: 24 h in drug and 24 h in medium alone; for lowest concentration with significantly fewer Mf: 250, 25, 10 nM tested
[2] = single dose of 50 mg/Kg, intra-peritoneal route; cited from earlier work
L3 stage of B. pahangi = test: L3 viability in vitro; type: cell-based, Brugia pahangi; conditions: 6 days exposure
Procedure: L3 stages were harvested from mosquitoes nine days post-infection. L3 were picked individually with a fine glass pipette, counted and washed three times in HBSS containing 1000 units/ml of penicillin and 1000 µg/ml streptomycin by sedimentation at room temperature. 20–30 L3 per well were plated out in duplicate in 24-well plates in 2.0 ml of WCM containing drug, or carrier alone (DMSO) and cultured at 37°C for up to 7 days. […] This experiment was repeated twice.

adult female B. pahangi [3] = test: Adult female worm assay in vitro (Mf output and adult viability), continuous exposure; type: cell-based, Brugia pahangi
Procedure: For adult worm assays, adult female B. pahangi, 3–4 months old, were incubated individually in 2.0 ml of WCM overnight in 24-well plates and pre-screened for Mf production. […] For the drug experiments, six female worms of B. pahangi for each concentration of drug were cultured individually in 24-well plates in 2.0 ml of WCM containing drug, or carrier alone (DMSO) at a concentration equal to that in the highest concentration of drug. In some experiments, GA was used as a positive control. Initially, all five compounds were tested over selected concentrations starting at 2 µM to 100 nM (see Results for details). For Hsp90 inhibitors, Mf output by individual female worms is a sensitive indicator of adult worm viability and, in most experiments, was assessed at 72 h. In addition, adult worms were examined microscopically on a daily basis for 7–10 days to determine whether lower concentrations of drugs had any effects over a longer period of incubation. Results are expressed as mean Mf output ± SD over a 72 h period. Statistical significance between groups was calculated using the Mann Whitney test with P values<0.05 being considered significant.

B. pahangi Hsp90 = target: T1, B. pahangi Hsp90 (Brugia pahangi, UniProt O61998); test: Competition FP assay (displacement of Cy3B-GA), B. pahangi lysate; type: binding; conditions: FP assay; best fit (95% confidence intervals); read-out: B. pahangi IC50
T1 construct: Adult worms of B. pahangi were obtained from infected jirds; from tissue; host or cells: whole adult B. pahangi worms, ground and lysed in HFB buffer
Procedure: Adult worms of B. pahangi were obtained from infected jirds after 3–4 months, exactly as described previously and were frozen in liquid nitrogen, ground in a pestle and mortar to a fine powder and re-suspended in an appropriate volume of HFB assay buffer (20 mM HEPES, pH 7.3, 50 mM KCl, 5 mM MgCl2, 20 mM Na2MoO4, 1% NP40). Protein concentrations were estimated using the BioRad protein assay. At this point lysates were freeze-dried for shipping to the USA.
as §1, §2

[4] = tested on: B. pahangi Mf (microfilariae); test: Mf viability in vitro; type: cell-based, Brugia pahangi; conditions: Mf
Procedure: As adult Brugia worms are limited in numbers, initial experiments assessed the effect of each drug on Mf viability. Mf were purified from infected animals essentially as described previously. In brief, following lavage of the peritoneal cavity of an infected animal with Hanks Balanced Salt Solution (HBSS) pre-warmed to 37°C, Mf were collected by centrifugation and then purified from host cells by centrifugation through lymphoprep (Sigma). This procedure was repeated twice. Mf were collected from the pellet, washed twice in HBSS and once in worm culture medium (WCM) which comprised RPMI 1640, (Invitrogen Cat No: 52400), containing 5% heat inactivated fetal calf serum, 1% glucose, 100 units/ml penicillin and 100 µg/ml streptomycin (all Invitrogen). Mf were then dispensed into the wells of a 24-well plate to give approximately 200 Mf in 2.0 ml, using a single well for each drug concentration. All procedures were carried out using aseptic techniques. The five novel compounds, plus GA and medium alone controls, were tested three times against Mf over the full range of concentrations.

[5] = tested on: adult female B. pahangi and Mf; test: In vivo testing: adult female worms transplanted into the peritoneal cavity of BALB/c mice; design: species or system BALB/c mouse; conditions: 50 mg/Kg i.p. at day 0, 3 and 7
Excerpt: Adult worms were removed from the peritoneal cavity of infected jirds and rinsed in HBSS. 10 adult female worms were transplanted into the peritoneal cavity of each of ten male BALB/c mouse using standard methods, [28]. Adult worms were transferred into the peritoneal cavity of anaesthetized mice using a blunted glass hook. Not all mice received the full quota of 10 worms (see Table 1). […] This dose was selected on the basis of previous studies in a mouse xenograft model. […] The condition of any adult worms recovered was noted. Mf in the first 12 ml of peritoneal washings were pelleted by centrifugation and fixed in 2% formalin in water and stored at 4°C until counted. Mice were weighed at each time point to monitor any possible weight loss.

male worms (B. pahangi) = test: Adult male worm exposure in vitro; type: cell-based, Brugia pahangi; conditions: 100 nM, day 7 of exposure
Procedure: The remaining worms although alive, were extremely sluggish. […] Worms that were dying tended to burst and release their uterine contents and wells contained many embryonic stages in addition to Mf. […] By day 7 of exposure 100% of male worms exposed to 100 nM drug were dead.

Brugia Hsp90 = test: Competition FP assay, Brugia Hsp90 (species not separated); type: binding; conditions: read-out: IC50 for binding to Brugia Hsp90
Procedure: as §1, §2

[6] = recovery 9 days after last dose

For CCNC(=O)c1noc(-c2cc(C(C)C)c(O)cc2O)c1-c1ccc(CN2CCOCC2)cc1 [NVP-AUY922], the IC50 (B. malayi Hsp90) was 0.95 nM, the “mean Mf production” value (adult female B. pahangi [1]; 10 nM, not significant vs DMSO) was 910±674 Mf and the “mean Mf production” value (adult female B. pahangi [1]; 25 nM) was 100±60 Mf. The “mean Mf production” value (adult female B. pahangi [1]; 250 nM) was 11±23 Mf, the “condition of adult worms” value (adult female B. pahangi [1]; 24 h exposure to 10 nM, day 9, vs DMSO controls) was “no obvious difference” and the “condition of adult worms” value (adult female B. pahangi [1]; 24 h exposure to 25 nM, day 9) was “noticeably more sluggish than control worms”. For the same compound, the “condition of adult worms” value (adult female B. pahangi [1]; 24 h exposure to 250 nM, 9 days in medium alone) was “barely moving, but they were still alive”, the “lowest concentration with significantly fewer Mf” value (adult female B. pahangi [1]; 24 h in drug and 48 h in medium alone) was 10 nM and the “lowest concentration with significantly fewer Mf” value (adult female B. pahangi [1]; after 24 h in drug) was 25 nM. The “time of maximum plasma level post-dosing” value [2] was 0.25 h, the “effect on L3” value (L3 stage of B. pahangi; 1 nM or below) was “no effect” and the L3 dead (L3 stage of B. pahangi; 5.0 nM, remainder moving very slowly) was “approximately 30%”. For the same compound, the L3 dead (L3 stage of B. pahangi; all concentrations down to and including 10 nM) was 100%, the “adult worm survival at lower concentrations” value (adult female B. pahangi [3]; 10 and 5.0 nM, motility affected) was “did not die” and the “lowest concentration with significant inhibitory effect on Mf output” value (adult female B. pahangi [3]; 72 h exposure, titrated 500 nM to 1.0 nM) was 10 nM. For the same compound, the adult worms killed (adult female B. pahangi [3]; 6 days exposure, 25 nM) was 50%, the adult worms dead (adult female B. pahangi [3]; 6 days exposure, 25 nM, typical experiment) was 3/6 and the adult worms dead (adult female B. pahangi [3]; 6 days exposure, 50 nM, typical experiment) was 4/6. For the same compound, the adult worms dead (adult female B. pahangi [3]; 6 days exposure, 100 nM and above) was “all adult worms were dead”, the “lowest concentration with significant decrease in Mf output” value (adult female B. pahangi [3]; 6 days exposure, not significant at 1.0 nM) was 5.0 nM and 5 nM and the “concentration with significant effect on Mf output” value (adult female B. pahangi [3]; initial screen 2.0 µM to 100 nM, adult female worms) was at most 100 nM. The IC50 (B. pahangi Hsp90) was 0.64 nM, the “% death by day 7” value ([4]; 0.976 nM) was 75% and the “% death by day 7” value ([4]; 1.95 nM) was 100%. For the same compound, the “Mean no Mf per mouse” value ([5]; first 12 ml of peritoneal washings) was 4730±5101, the “recovery of live worms” value ([5]; range over treated mice) was 0–11% and the “Total number worms recovered” value ([5]; recovered/transplanted) was 8/48 ^**. The “No. mice with live Mf” value [5, 6] was 2/5, the “No. mice with viable worms” value [5, 6] was 2/5 and the “No. mice with worms” value [5, 6] was 5/5. For the same compound, the “No. viable worms recovered” value [5, 6] was 2, the “viable worms recovered (mean % ± SD)” value [5, 6] was 4.4±6.0% and the male worms dead (male worms (B. pahangi)) was 100%. It also gave an IC50 (Brugia Hsp90) of about 1 nM.
